# Laboratory results: patent US9078874B2, “Composition and method for treating cognitive impairments in down syndrom subjects” (Centre National De La Recherche Scientifique—CNRS, priority 2009, dated 2015)
# Columns and labels:
# euploid mice = test: Dose-response in the delayed-matching-to-place task (DMTP); assay type: in vivo; details: 5 mg/kg, 30 min before testing; versus placebo; p<0.05
# Experimental: FIG. 5 depicts results from a dose-response effect study of α5IA. The optimal α5IA promnesiant dose was determined in mice trained in the DMTP task. FIG. 5A: Schematic representation of the DMTP protocol. Each day, mice underwent 1 acquisition trial and 3 retention trials (inter-trial interval was 60 sec). The position of the platform was changed every day, but remained constant within each session.
# To determine the optimal dose of α5IA, a dose-response study was performed in euploid mice trained in the delayed-matching-to-place task (DMTP), a classical learning and memory paradigm used to assess the promnesiant effects of drugs, and in particular of GABAA α5 inverse agonists [ref 8, 9, 11].
# Experiments were performed in a Morris water maze (MWM). The maze was a 150-cm diameter pool filled with opacified water kept at 19° C. and equipped with a 9 cm diameter platform submerged 1 cm under the water surface. A total of 27 mice were used. Animals were randomly and equally distributed in 3 groups (placebo, α5IA 1 mg/kg, α5IA 5 mg/kg). Training was performed during 7 days. […] Memory assessment was determined by comparing the distance to reach the platform on the first trial (acquisition trial) and the mean distance traveled in subsequent trials (retention trials).
# euploid and Ts65Dn mice = test: Locomotor activity and anxiety in the open field; assay type: in vivo
# Experimental: FIG. 7 depicts results from a locomotor activity and anxiety study of α5IA in Ts65Dn and euploid mice in the open field. Effects of α5IA (5 mg/kg) were evaluated on locomotion and anxiety in the open field.
# Locomotor activity was evaluated in a total of 33 mice 30 min after i.p. injections (placebo: 8 euploid and 7 Ts65Dn mice; α5IA (5 mg/kg): 10 euploid and 8 Ts65Dn mice). Locomotion was measured in a square open field (50 cm×50 cm; luminosity: 30 lux) with black walls 30 cm high. Briefly, each animal was placed in the center of the arena and allowed to freely explore it for 10 min. Horizontal activity was monitored using the Any-Maze software. Time spent in the 10-cm wide peripheral zone and in the complementary 30 cm×30 cm central zone was recorded to evaluate anxiety.
# [1] = test system: GABAA receptors containing either an α1, α2, α3 or α5 subunit; details: cited from earlier work
# rats = details: 240 mg/kg for 5 weeks; cited from earlier work
structure (smiles),measurement,setting,value
"Cc1cc(-c2nnc3c4ccccc4c(OCc4cn(C)nn4)nn23)no1 [α5IA, 3-(5-methylisoxazol-3-yl)-6-[(1-methyl-1,2,3-triazol-4-yl)methyloxy]-1,2,4-triazolo[3,4-a]phthalazine]",Performance (distance to platform) between acquisition and retention trials,euploid mice,significantly higher performance
same,locomotor activity and anxiety (periphery-to-center exploration ratio) in the open field,"euploid and Ts65Dn mice; 5 mg/kg, Ts65Dn and euploid mice",did not alter locomotor activity and anxiety
same,horizontal activity (traveled distances),"euploid and Ts65Dn mice; single injection 5 mg/kg, euploid and Ts65Dn mice",did not modify the gross locomotor activity
same,binding affinity at the benzodiazepine binding site,[1],equal affinity
same,renal toxicity,rats,renal pyelitis and papillitis associated with crystals formation
